Experimental data taken from the supplement of paper PMC10307832.

How the values were obtained:
Experiment in all cases: relative viability (nuclei count vs DMSO), 5 days (fraction); higher = more cells survive
BGJ398 + OSI-027 = compound: CCN1CCN(c2ccc(Nc3cc(N(C)C(=O)Nc4c(Cl)c(OC)cc(OC)c4Cl)ncn3)cc2)CC1 [BGJ398] + COc1cccc2cc(-c3nc([C@H]4CC[C@H](C(=O)O)CC4)n4ncnc(N)c34)[nH]c12 [OSI-027] (partner 0.5 µM)
How it was run: (§1)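 Dosing by pin tool came one day after lung cancer cell lines were seeded in 1536-well plates, using either one drug or a fixed anchor-drug dose plus five library-drug doses (not always all listed) in √10 steps. After 5 days, nuclei were counted on 4× images. Relative viability is treated-well nuclei count divided by vehicle-well nuclei count, and values are medians of duplicate plates.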

BGJ398 + Alpelisib = compound: CCN1CCN(c2ccc(Nc3cc(N(C)C(=O)Nc4c(Cl)c(OC)cc(OC)c4Cl)ncn3)cc2)CC1 [BGJ398] + Cc1nc(NC(=O)N2CCC[C@H]2C(N)=O)sc1-c1ccnc(C(C)(C)C(F)(F)F)c1 [Alpelisib] (partner 2 µM)
How it was run: as §1

BGJ398 + Vorinostat = compound: CCN1CCN(c2ccc(Nc3cc(N(C)C(=O)Nc4c(Cl)c(OC)cc(OC)c4Cl)ncn3)cc2)CC1 [BGJ398] + O=C(CCCCCCC(=O)Nc1ccccc1)NO [Vorinostat] (partner 1 µM)
How it was run: as §1

BGJ398 + Linsitinib = compound: CCN1CCN(c2ccc(Nc3cc(N(C)C(=O)Nc4c(Cl)c(OC)cc(OC)c4Cl)ncn3)cc2)CC1 [BGJ398] + C[C@]1(O)C[C@@H](c2nc(-c3ccc4ccc(-c5ccccc5)nc4c3)c3c(N)nccn32)C1 [Linsitinib] (partner 1 µM)
How it was run: as §1

| Cell Line | relative viability (BGJ398 + OSI-027; first compound 0.01 µM) | relative viability (BGJ398 + OSI-027; first compound 0.03162 µM) | relative viability (BGJ398 + OSI-027; first compound 0.1 µM) | relative viability (BGJ398 + OSI-027; first compound 0.3162 µM) | relative viability (BGJ398 + OSI-027; first compound 1 µM) | relative viability (BGJ398 + Alpelisib; first compound 0.01 µM) | relative viability (BGJ398 + Alpelisib; first compound 0.03162 µM) | relative viability (BGJ398 + Alpelisib; first compound 0.1 µM) | relative viability (BGJ398 + Alpelisib; first compound 0.3162 µM) | relative viability (BGJ398 + Alpelisib; first compound 1 µM) | relative viability (BGJ398 + Vorinostat; first compound 0.01 µM) | relative viability (BGJ398 + Vorinostat; first compound 0.03162 µM) | relative viability (BGJ398 + Vorinostat; first compound 0.1 µM) | relative viability (BGJ398 + Vorinostat; first compound 1 µM) | relative viability (BGJ398 + Linsitinib; first compound 0.01 µM) | relative viability (BGJ398 + Linsitinib; first compound 0.03162 µM) | relative viability (BGJ398 + Linsitinib; first compound 0.1 µM) | relative viability (BGJ398 + Linsitinib; first compound 0.3162 µM) | relative viability (BGJ398 + Linsitinib; first compound 1 µM) | relative viability (BGJ398 + Vorinostat; first compound 0.3162 µM) |
| --- | --- | --- | --- | --- | --- | --- | --- | --- | --- | --- | --- | --- | --- | --- | --- | --- | --- | --- | --- | --- |
| PC-14 | 0.781 | 0.16 | 1.07 | 0.464 | 1.07 | 0.824 | 0.845 | 0.98 | 0.958 | 0.938 | 0.722 | 0.121 | 0.818 | 0.78 | 0.902 | 1.05 | 0.902 | 1 | 1.06 | – |
| NCI-H1915 | 0.59 | 0.614 | 0.62 | 0.582 | 0.687 | 0.981 | 1.05 | 1.1 | 1.08 | 1.05 | 0.466 | 0.515 | 0.597 | 0.486 | 1.05 | 1.04 | 1.12 | 1.19 | 1.13 | 0.54 |
| NCI-H1666 | 0.859 | 0.834 | 0.862 | 0.886 | 0.764 | 1.01 | 1.08 | 1.01 | 0.922 | 0.909 | 1.06 | 0.963 | 1.05 | 0.916 | 0.708 | 0.812 | 0.816 | 0.835 | 0.709 | 0.986 |
| HCC-366 | 0.843 | 0.964 | 0.96 | 0.822 | 0.979 | 0.417 | 0.478 | 0.676 | 0.404 | 0.348 | 0.337 | 0.385 | 0.371 | 0.255 | 0.743 | 0.736 | 0.699 | 0.801 | 0.784 | 0.391 |
